In article PMC8892206, “An RRx-001 Analogue With Potent Anti-NLRP3 Inflammasome Activity but Without High-Energy Nitro Functional Groups” (Frontiers in Pharmacology, 2022):

Biological target: T1, NLRP3 (Homo sapiens, UniProt Q96P20)
T1 construct: purified human His-GFP-NLRP3; NACHT domain mapped by DARTS
Test: microscale thermophoresis with purified GFP-NLRP3; DARTS and C409A mutation support
Format: binding

T1 sequence (Q96P20 whole entry, the tested form may be a part): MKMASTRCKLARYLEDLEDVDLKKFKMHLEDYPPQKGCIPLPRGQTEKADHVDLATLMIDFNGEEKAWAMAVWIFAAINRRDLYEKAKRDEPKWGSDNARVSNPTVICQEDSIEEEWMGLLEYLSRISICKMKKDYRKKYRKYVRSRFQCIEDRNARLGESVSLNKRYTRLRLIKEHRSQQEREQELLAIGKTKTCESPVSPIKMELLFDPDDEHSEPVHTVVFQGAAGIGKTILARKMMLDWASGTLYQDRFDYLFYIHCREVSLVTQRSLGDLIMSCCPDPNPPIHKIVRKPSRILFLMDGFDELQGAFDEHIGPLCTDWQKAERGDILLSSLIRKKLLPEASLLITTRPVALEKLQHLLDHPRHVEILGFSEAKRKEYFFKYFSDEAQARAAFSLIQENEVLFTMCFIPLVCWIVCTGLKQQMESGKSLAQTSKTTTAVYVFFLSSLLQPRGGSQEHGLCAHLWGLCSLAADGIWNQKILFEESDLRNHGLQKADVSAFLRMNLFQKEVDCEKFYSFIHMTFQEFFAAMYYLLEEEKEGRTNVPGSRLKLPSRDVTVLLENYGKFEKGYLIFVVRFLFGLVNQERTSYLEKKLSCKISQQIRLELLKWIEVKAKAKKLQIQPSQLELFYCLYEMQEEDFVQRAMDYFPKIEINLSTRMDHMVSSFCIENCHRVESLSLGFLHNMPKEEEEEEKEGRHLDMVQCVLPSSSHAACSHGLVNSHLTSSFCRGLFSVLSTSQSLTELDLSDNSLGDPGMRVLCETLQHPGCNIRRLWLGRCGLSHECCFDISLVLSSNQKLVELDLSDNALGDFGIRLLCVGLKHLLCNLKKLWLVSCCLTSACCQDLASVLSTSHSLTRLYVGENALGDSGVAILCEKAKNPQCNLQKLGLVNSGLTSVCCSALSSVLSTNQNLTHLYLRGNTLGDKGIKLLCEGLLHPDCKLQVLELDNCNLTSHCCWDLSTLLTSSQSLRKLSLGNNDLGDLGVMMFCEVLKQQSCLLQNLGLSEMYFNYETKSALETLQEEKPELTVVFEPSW

Kd: 48.2 nM
Compound: O=C(CBr)NCc1ccc(C(F)(F)F)cc1 [149-01]
